From patent US5606020A, “6 (R)-l-erythro-5,6,7,8-tetrahydrobiopterin receptor” (Suntory Limited, priority 1991, dated 1997)
pKd: −log10 of the molar value.

Legend:
[1] = target: known enzymes which participate in the biosynthesis of 6R-BH4 or enzymes for which 6R-BH4 acts as a coenzyme; conditions: enzymes of 6R-BH4 biosynthesis or using 6R-BH4 as coenzyme; cited from earlier work
[2] = system: release of neurotransmitter amines such as dopamine (DA), norepinephrine and serotonin; experiment: Release and liberation of neurotransmitters
[3] = supplementation therapy; cited from earlier work
6R-BH4 receptor [4] = target: T1, 6R-BH4 receptor (Rattus norvegicus, UniProt P29476); experiment: Scatchard plot analysis of [6-^3 H]6R-BH4 binding to solubilized fraction of rat cerebellum
T1 construct: solubilized fraction of rat cerebellum; from tissue; host or cells: rat cerebellum, P2 membrane fraction solubilized with CHAPS (not purified)
Procedure: The Scatchard plot analysis may be carried out, for example, as follows. In an appropriate buffer solution, for example, 50 mM Tris hydrochloride (pH 7.4), 100 mM NaCl, 10 mM MgCl2, 2 mM ascorbic acid and 6 mM cysteine solution, a fraction containing the receptor solubilized with CHAPS is incubated with [6-^3 H]6R-BH4 at various concentrations under appropriate conditions, for example, at 37° C. for 10 minutes. Then the radioactivity is measured by a conventional method and plotted. From the plots, Kd (dissociation constant) and Bmax are determined and employed as indicators of the affinity.
By using a determined amount of the solubilized fraction of rat cerebellum, Scatchard plot analysis with regard to the solubilized receptor protein of the present invention was performed by the conventional method. […]
The reaction mixture was cooled on ice for 10 minutes and then filtered through a glass filter. […] 2 ml of ethanol and 8 ml of creasol (Nacalai Tesque) were added to the filter and the radioactivity on the filter was measured in a liquid scintillation counter.
FIG. 4 is a graph showing the radioactivities which bound to the receptor when [6-^3 H]6R-BH4 was added at various concentrations to a determined amount of the solubilized receptor. […] Accordingly, the saturation of the specific binding can be calculated as the difference between the total and nonspecific bindings. […]

6R-BH4 receptor [5] = target: T1, 6R-BH4 receptor; experiment: Competitive binding test between various compounds and 13 nM [6-^3 H]6R-BH4, solubilized fraction of rat cerebellum; conditions: for affinity of the receptor to 6R-BH4 relative to its affinity to the compound (from IC50 data): 13 nM [6-^3 H]6R-BH4, solubilized fraction of rat cerebellum
Procedure: The specificity of the receptor of the present invention in binding to 6R-BH4 can be confirmed by a competitive binding test with the use of various compounds at varying concentrations.
In this method, the above-mentioned compounds at varying concentrations (for example, biopterin as will be described in Example 6 hereinafter) are added as a ligand simultaneously with [6-^3 H]6R-BH4 to the reaction mixture and the reaction is performed. The ability of the receptor of the present invention to bind to 6R-BH4 will not be inhibited to any substantial extent by these ligands.
By using the solubilized fraction of rat cerebellum, a competitive binding test between various compounds at varying concentrations and 13 nM of [6-^3 H]6R-BH4 was carried out.
About 0.3 mg (protein) of the solubilized fraction obtained in Example 3 was incubated together with 13 nM of [6-^3 H]6R-BH4 in a 200 μl solution of 50 mM Tris hydrochloride (pH 7.4), 100 mM NaCl, 10 mM MgCl2, 2 mM ascorbic acid and 6 mM cysteine at 37° C. for 10 minutes. Then 3 mg/ml (final concentration) of bovine γ-globulin and 15% (final concentration) of polyethylene glycol 6000 were added to cease the reaction.
Next, the reaction mixture was cooled on ice for 10 minutes and then passed through a glass filter. After being washed 4 times with 4 ml portions of 8% polyethylene glycol and 10 mM Tris hydrochloride (pH 7.4), the filter was taken off and placed in a vial. 2 ml of ethanol and 8 ml of creasol (Nacalai Tesque) were added to the filter and the radioactivity on the filter was measured in a liquid scintillation counter.
The results thus obtained were referred to as total binding. Then various compounds at varying concentrations were added as a ligand simultaneously with [6-^3 H]6R-BH4 in the above procedure, and the reaction was effected.

T1 sequence (P29476 whole entry): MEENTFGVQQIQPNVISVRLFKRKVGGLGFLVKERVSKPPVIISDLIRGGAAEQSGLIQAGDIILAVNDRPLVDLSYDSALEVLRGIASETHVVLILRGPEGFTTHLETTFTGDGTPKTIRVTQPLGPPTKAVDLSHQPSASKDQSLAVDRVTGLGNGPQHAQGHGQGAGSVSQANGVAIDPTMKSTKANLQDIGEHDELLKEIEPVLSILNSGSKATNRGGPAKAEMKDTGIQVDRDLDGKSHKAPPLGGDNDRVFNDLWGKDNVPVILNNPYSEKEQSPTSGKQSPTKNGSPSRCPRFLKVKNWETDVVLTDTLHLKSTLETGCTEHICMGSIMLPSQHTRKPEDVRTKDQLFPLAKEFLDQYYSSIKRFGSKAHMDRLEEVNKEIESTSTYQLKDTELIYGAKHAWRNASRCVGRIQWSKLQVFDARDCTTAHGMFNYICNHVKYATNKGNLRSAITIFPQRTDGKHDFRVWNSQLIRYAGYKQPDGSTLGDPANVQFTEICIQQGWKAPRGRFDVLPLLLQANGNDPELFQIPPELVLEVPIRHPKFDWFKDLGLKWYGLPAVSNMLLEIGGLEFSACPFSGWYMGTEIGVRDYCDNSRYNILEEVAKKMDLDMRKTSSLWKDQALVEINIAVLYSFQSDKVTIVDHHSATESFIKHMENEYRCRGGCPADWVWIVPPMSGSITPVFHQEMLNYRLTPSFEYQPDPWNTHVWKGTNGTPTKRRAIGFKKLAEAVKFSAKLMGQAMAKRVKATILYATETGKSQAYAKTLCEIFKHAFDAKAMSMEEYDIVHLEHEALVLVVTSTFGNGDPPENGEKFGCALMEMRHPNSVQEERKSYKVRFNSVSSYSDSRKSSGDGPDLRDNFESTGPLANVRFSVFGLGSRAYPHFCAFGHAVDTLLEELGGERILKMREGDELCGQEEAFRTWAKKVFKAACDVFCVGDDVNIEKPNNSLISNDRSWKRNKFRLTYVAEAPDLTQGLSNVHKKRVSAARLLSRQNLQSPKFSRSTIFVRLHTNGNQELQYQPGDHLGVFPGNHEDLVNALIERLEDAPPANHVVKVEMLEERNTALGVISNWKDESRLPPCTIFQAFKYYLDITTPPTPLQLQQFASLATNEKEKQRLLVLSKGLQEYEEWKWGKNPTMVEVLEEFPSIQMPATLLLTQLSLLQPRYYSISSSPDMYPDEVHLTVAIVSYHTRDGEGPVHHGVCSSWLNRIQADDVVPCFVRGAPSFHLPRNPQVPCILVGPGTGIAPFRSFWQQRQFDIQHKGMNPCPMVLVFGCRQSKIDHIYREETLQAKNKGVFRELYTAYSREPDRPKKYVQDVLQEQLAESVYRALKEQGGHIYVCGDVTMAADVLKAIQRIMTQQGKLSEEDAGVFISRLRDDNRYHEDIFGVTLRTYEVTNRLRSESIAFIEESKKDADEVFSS

C[C@H](O)[C@H](O)[C@H]1CNc2nc(N)[nH]c(=O)c2N1 [6R-BH4, 6(R)-L-erythro-5,6,7,8-tetrahydrobiopterin]
Kd for known enzymes [1]: several ten | liberation of glutamic acid, aspartic acid or GABA via DA and release of acetylcholine via serotonin [2]: enhances | release and liberation of neurotransmitter amines such as dopamine (DA), norepinephrine and serotonin [2]: enhances | treatment of malignant phenylketonuria, juvenile Parkinson's disease and infantile autism of the dysbolism type [3]: effective | Bmax (maximum binding constant) (6R-BH4 receptor [4]): 550 fmol/mg protein | pKd (6R-BH4 receptor [4]; 37° C. for 10 minutes, read-out: Kd (dissociation constant)): 7.68

C[C@H](O)[C@H](O)[C@@H]1CNc2nc(N)[nH]c(=O)c2N1 [6S-BH4]
affinity of the receptor to 6R-BH4 relative to its affinity to the compound (from IC50 data) (6R-BH4 receptor [5]): > 1,000 times

C[C@H](O)[C@H](O)C1=Nc2c(nc(N)[nH]c2=O)NC1 [BH2, 7,8-dihydrobiopterin]
affinity of the receptor to 6R-BH4 relative to its affinity to the compound (from IC50 data) (6R-BH4 receptor [5]): more than 50 times

Nc1nc2c(c(=O)[nH]1)NC(CNc1ccc(C(=O)N[C@@H](CCC(=O)O)C(=O)O)cc1)CN2 (stereo partly drawn) [FAH4, tetrahydrofolic acid]
binding ability to the receptor (6R-BH4 receptor [5]; competitive binding, solubilized fraction of rat cerebellum): does not show any substantial binding ability
